Values quoted from earlier work as cited in patent US20220152053A1, “METHODS AND COMPOSITIONS FOR TREATING VARIOUS DISORDERS” (Amylyx Pharmaceuticals, Inc., priority 2019, published 2022).
Read-outs that look alike come from different tables or passages of the source.

What was measured:
[1] = test system: subjects with urea cycle disorders; settings: for Other (rare) adverse events, frequency: gastrointestinal, hematologic, cardiovascular, renal, psychiatric, skin, miscellaneous
ALS subjects = settings: daily dosages between 9 and 21 grams, 20 weeks
[2] = test system: G93A SOD1 mouse model of ALS; settings: in vivo
CD-1 mice = settings: oral, 50, 250, and 1000 mg/kg/day, 2 years
Sprague-Dawley rats = settings: oral, 50, 250, and 1000 mg/kg/day, 2 years, males and females
liver enzyme levels = settings: in vivo
CYP 1A2 = target: T1, CYP 1A2 (Homo sapiens, UniProt P05177); settings: at 20 times the intended clinical concentration (Cmax)
T1 sequence (P05177 1-516): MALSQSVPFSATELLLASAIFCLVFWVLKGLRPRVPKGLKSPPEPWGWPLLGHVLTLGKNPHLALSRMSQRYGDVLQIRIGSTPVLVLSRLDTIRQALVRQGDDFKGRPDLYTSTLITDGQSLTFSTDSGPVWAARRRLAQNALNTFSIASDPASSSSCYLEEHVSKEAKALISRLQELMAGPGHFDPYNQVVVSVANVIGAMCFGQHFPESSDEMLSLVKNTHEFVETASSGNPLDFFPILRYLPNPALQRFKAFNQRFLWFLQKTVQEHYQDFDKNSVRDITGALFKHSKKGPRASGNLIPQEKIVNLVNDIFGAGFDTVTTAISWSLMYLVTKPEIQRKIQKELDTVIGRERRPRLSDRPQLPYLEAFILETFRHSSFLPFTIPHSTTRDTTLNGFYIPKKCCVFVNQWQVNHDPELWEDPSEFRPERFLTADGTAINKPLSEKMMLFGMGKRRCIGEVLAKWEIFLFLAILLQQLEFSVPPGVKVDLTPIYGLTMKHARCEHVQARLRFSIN

CYP 2D6 = CYP 2D6 (Homo sapiens, UniProt P10635); settings: at 20 times the intended clinical concentration (Cmax)
rat = settings: intrarectal instillation, 78 weeks
subjects = settings: prior human experience
cancer subjects = settings: intravenous, 250-300 mg/kg/day for 14 days, repeated at 4-week intervals

CYP 2D6, sequence (P10635 whole entry): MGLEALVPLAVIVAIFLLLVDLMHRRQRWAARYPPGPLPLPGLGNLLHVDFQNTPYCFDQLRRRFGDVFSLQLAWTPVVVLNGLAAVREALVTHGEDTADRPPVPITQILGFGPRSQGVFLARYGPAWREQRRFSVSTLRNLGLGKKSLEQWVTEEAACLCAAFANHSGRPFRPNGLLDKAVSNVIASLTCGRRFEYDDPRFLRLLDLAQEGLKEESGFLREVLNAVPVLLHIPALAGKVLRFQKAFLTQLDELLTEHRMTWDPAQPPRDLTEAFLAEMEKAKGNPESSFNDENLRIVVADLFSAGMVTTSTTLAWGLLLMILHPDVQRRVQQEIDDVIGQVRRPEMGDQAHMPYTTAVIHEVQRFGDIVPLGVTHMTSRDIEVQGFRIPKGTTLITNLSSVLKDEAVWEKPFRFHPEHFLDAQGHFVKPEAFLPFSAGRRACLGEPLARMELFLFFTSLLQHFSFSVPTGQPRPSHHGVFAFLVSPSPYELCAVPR

O=C(O)CCCc1ccccc1 [phenylbutyrate, sodium phenylbutyrate]
Decreased appetite ([1]; all subjects): 4%
Other (rare) adverse events, frequency [1]: ≤ 2%
Other (rare) adverse events, frequency ([1]; listed as PB): < 2%
Body odor ([1]; human, in vivo): 3%
bad taste or taste aversion ([1]; human, in vivo): 3%
amenorrhea/menstrual dysfunction (irregular menstrual cycles) ([1]; menstruating subjects): 23%
safety and tolerability (ALS subjects): generally safe and tolerable
survival [2]: increase survival

C[C@H](CCC(=O)O)[C@H]1CC[C@H]2[C@@H]3[C@@H](O)C[C@@H]4C[C@H](O)CC[C@]4(C)[C@H]3CC[C@]12C [Ursodeoxycholic acid]
tumorigenicity (CD-1 mice): not tumorigenic
tumorigenicity (Sprague-Dawley rats): statistically significant dose-related increased incidences of pheochromocytomas of adrenal medulla
association with liver damage (liver enzyme levels): has not been associated with liver damage

Phenylacetylacetate
inhibition of CYP 1A2 (CYP 1A2): inhibitory
inhibition of CYP 2D6 (CYP 2D6): inhibitory

C[C@H](CCC(=O)NCCS(=O)(=O)O)[C@H]1CC[C@H]2[C@@H]3CC[C@@H]4C[C@H](O)CC[C@]4(C)[C@H]3C[C@H](O)[C@]12C [tauro-deoxycholic acid]
effect when co-administered with a carcinogenic agent (rat): tumor-promoting effect
tumor production, bile acid alone (rat): did not produce any tumors

C[C@H](CCC(=O)NCCS(=O)(=O)O)[C@H]1CC[C@H]2[C@@H]3[C@@H](O)C[C@@H]4C[C@H](O)CC[C@]4(C)[C@H]3CC[C@]12C [TURSO, taurursodiol]
frequency of adverse reactions (abdominal discomfort, abdominal pain, diarrhea, nausea, pruritus, rash) (subjects): ≥ 1%
frequency of adverse reactions (abdominal discomfort, abdominal pain, diarrhea, nausea, pruritus, rash) (subjects; listed as TUDCA): > 1%

O=C(O)Cc1ccccc1 [phenylacetate, phenylacetic acid]
Neurotoxicity (cancer subjects): Neurotoxicity was reported
